# Paper PMC7503281, “The Structure of Clostridioides difficile SecA2 ATPase Exposes Regions Responsible for Differential Target Recognition of the SecA1 and SecA2-Dependent Systems” (International Journal of Molecular Sciences, 2020)
# Target: T1, CDSecA2 (Clostridioides difficile, UniProt Q183M9)
# T1 construct: gene secA2; pMCSG7, E. coli BL21(DE3); His tag cut by TEV, extra N-terminal SNAAA kept; monomer in crystal
# Assay: X-ray crystallography (cocrystallization)
# Type: binding
# Settings: 2 mM ATP-γ-S, 4 mM MgCl2, pH 8.3, 20 °C; active site between NBD1 and NBD2, Walker A/B
# T1 sequence (Q183M9 whole entry): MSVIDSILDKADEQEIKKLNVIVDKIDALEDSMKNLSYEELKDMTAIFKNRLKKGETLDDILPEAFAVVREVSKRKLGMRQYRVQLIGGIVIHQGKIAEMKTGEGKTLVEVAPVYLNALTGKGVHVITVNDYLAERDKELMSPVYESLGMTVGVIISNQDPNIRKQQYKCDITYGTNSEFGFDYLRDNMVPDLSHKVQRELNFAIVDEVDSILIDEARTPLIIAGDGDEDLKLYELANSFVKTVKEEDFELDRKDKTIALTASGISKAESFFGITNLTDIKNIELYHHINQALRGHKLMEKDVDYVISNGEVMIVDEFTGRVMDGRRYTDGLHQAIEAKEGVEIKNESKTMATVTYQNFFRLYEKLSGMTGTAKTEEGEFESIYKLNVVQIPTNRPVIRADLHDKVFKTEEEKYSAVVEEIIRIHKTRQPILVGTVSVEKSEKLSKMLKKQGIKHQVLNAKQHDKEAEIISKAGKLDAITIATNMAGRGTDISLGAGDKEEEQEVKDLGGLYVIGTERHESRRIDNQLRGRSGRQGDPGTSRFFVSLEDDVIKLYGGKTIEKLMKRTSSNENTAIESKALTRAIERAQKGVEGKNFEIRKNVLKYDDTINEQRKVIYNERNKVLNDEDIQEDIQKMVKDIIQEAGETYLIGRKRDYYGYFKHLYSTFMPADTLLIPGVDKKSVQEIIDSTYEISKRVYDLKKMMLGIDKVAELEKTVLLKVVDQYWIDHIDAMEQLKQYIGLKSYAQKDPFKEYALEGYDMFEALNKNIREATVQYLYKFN
smiles,measurement,value
"Nc1ncnc2c1ncn2[C@@H]1O[C@H](COP(=O)(O)OP(=O)(O)OP(O)(O)=S)[C@@H](O)[C@H]1O [ATP-γ-S, adenosine-5′-(γ-thio)-triphosphate]",X-ray crystallography (cocrystallization),the electron density map for the ATP-γ-S ligand unambiguously positioned it in the active site
